Values quoted from earlier work, collected in patent US20170196950A1, “METHOD FOR PRODUCING AUTOLOGOUS TOLEROGENIC DENDRITIC CELLS (TOLDCS) WITH SPECIFIC ANTIGENS AND THEIR USE IN THE PREPARATION OF A MEDICAMENT USEFUL FOR THE TREATMENT OF SYSTEMIC LUPUS ERYTHEMATOSUS (SLE)” (PONTIFICIA UNIVERSIDAD CATOLICA DE CHILE, priority 2014, published 2017).

Key:
lupus nephritis patients = settings: maintenance phase
lupus patients = settings: controlled clinical studies

| Compound | Patients who presented serious adverse effects (lupus nephritis patients) | Patients withdrawn from the study (lupus nephritis patients) | Efficacy in lupus (lupus patients) |
| --- | --- | --- | --- |
| COc1c(C)c2c(c(O)c1C/C=C(\C)CCC(=O)OCCN1CCOCC1)C(=O)OC2 [MMF, mycophenolate mofetil] | 23.5% | 25.2% |  |
| Cn1cnc([N+](=O)[O-])c1Sc1ncnc2nc[nH]c12 [azathioprine] | 33.3% | 39.6% |  |
| rituximab |  |  | no efficacy |
